Measured values from patent US8252807B2, “Methods of inhibiting the interaction between S100 and the receptor for advanced glycation end-products” (Board of Regents, The University of Texas System, priority 2007, dated 2012).

Experiments:
[1] = biological target: T1, S100P binding with RAGE (Homo sapiens, UniProt P25815); test: S100P binding with RAGE ELISA (sRAGE coated plate)
T1 construct: full-length human S100P cDNA (NM_005980) was cloned into the pTrcHis2 vector; His tag
T1 sequence (P25815 1-95): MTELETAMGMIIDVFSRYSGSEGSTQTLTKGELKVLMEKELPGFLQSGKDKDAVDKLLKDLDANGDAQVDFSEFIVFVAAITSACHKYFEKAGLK
Method: After removing un-bound S100P by washing with detergent, the bound S100P and RAGE complex was quantified by adding HRP labeled antibody against S100P. *, P=0.04 C5 μM versus cromolyn 5 μM. Two-tailed two-sample (unpaired) Student's t-tests were used to determine P values.

[2] = test system: MPanc-96 cells; test: MPanc-96 cell apoptosis by flow cytometry, 72 hours; assay type: cell-based, human; conditions: 100 and 1000 nM, with or without gemcitabine 10 μM
Method: FIG. 11 compares the effects of cromolyn and C5 alone and in combination with gemcitabine on MPanc-96 cell apoptosis. MPanc-96 cells were treated with cromolyn or C5 (100 and 1000 nM) with (+) or without (−) gemcitabine (10 μM). Apoptosis was analyzed after 72 hours by flow cytometry.

[3] = test system: NFκB activity in MPanc-96 cells; test: S100P stimulated NFκB luciferase reporter, MPanc-96; assay type: cell-based, human
Method: MPanc-96 pancreatic cancer cell lines stably expressing an NFκB luciferase reporter were examined for the effects of S100P, cromolyn and C5. Cells were plated at 5.0×10^3 cells/well, treated for 5 hours with 100 nM of S100P, with or without cromolyn and C5 (1 μM), and activity of a luciferase gene driven by the NFkB promoter was analyzed. P=0.05 C5 versus cromolyn. Two-tailed two-sample (unpaired) Student's t-tests were used to determine P values.

[4] = biological target: S100B with RAGE (Homo sapiens, UniProt P04271); test: S100B binding with RAGE ELISA (sRAGE coated plate)
From the text: After removing un-bound S100B by washing with detergent, bound S100B and RAGE complex was quantified by adding HRP labeled antibody against S100B.

[5] = test system: BxPC-3 cells; test: BxPC-3 cell viability, 72 hours; assay type: cell-based
Method: BxPC-3 cells were plated at 1.0×10^3 cells/well and treated with 0 μM, 1 μM, 10 μM, and 100 μM of cromolyn or C5 alone or in combination with gemcitabine 1 μM and cell viability was analyzed after 72 hours. Two-tailed two-sample (unpaired) Student's t-tests were used to determine P values. […] BxPC-3 cells were plated at 1.0×10^3 cells/well and treated with either 100 μM of cromolyn or 1 μM C5 alone or in combination with gemcitabine (1 μM) and cell viability was analyzed after 72 hours.

[6] = test system: Panc-1 cells; test: Panc-1 cell growth (MTS); assay type: cell-based
Method: Panc-1 pancreatic adenocarcinoma cells (1.0×10^3 cells/well) were cultured in the presence or absence of S100P (100 nM) and with or without cromolyn (100 μM), and cell proliferation was analyzed at 24, 48, and 72 hours. Means and 95% confidence intervals of three independent experiments performed in triplicate are shown. *, P=0.001, S100P alone versus S100P+cromolyn.
Panc-1 cells were plated at 1.0×10^3 cells/well and treated with platelet-derived growth factor (10 ng/mL) with or without cromolyn (100 μM), and cell proliferation was analyzed after 48 hours. Means and 95% confidence intervals of three independent experiments performed in triplicate are shown. *, P=0.004 PDGF and P=0.022 cromolyn+PDGF versus control.
Growth of Panc-1 and BxPC3 pancreatic adenocarcinoma cells was analyzed using MTS reagent (Promega, Madison, Wis.) according to the manufacturer's directions. Purified S100P (100 nM final concentration) with or without cromolyn (100 μM final concentration) was added to Panc-1 cells. Only cromolyn (0-100 μM) was added to BxPC-3 cells, which express endogenous S100P. For both cell models, 1.0×10^3 cells/well were plated in 96-well culture dishes. Cells were treated with S100P, PDGF, or cromolyn, or a combination, followed immediately by treatment with either S100P or PDGF. MTS (20 μL per well) was added to cells at various times, and the mixture was incubated for 1 hour at 37° C. Samples were then read at 490 nm (as O.D. units) on a uQuant-Microplate Spectrophotometer (Bio-Tek Services Inc., Richmond, Va.). The assay was performed three times in triplicate.

[7] = test system: Panc-1 cells; test: Matrigel invasion assay, Panc-1; assay type: cell-based; conditions: S100P 100 nM alone, 24 hours
Method: FIGS. 2A-2D show the effect of cromolyn on pancreatic cancer cell invasion. Panc-1 and BxPC-3 cells were plated in Bio-coat matrigel and control chambers and cultured in serum-free culture media. After 24 hours non-invaded cells in the upper chamber were removed, and cells that invaded onto the lower surface of the membrane were counted from five adjacent fields. […] Data are expressed as the percent invasion through the matrigel matrix and membrane relative to migration through the control membrane. Means and 95% confidence intervals from three independent experiments performed in triplicate are shown. Two-tailed two-sample (unpaired) Student's t-tests were used to determine P values.
Panc-1 and BxPC-3 cells were seeded in BIOCOAT matrigel invasion chambers and in control chambers without matrigel (Becton-Dickinson, Bedford, Mass.) according to the manufacturer's protocol. Panc-1 cells were seeded with S100P (100 nM) with or without cromolyn (100 μM), and BxPC-3 cells were seeded with or without cromolyn (1-100 μM). Briefly, 2.0×10^5 cells in 300 μL top solution (serum-free media) were added to each chamber and allowed to invade matrigel for 24 hours at 37° C. in a 5% CO2 atmosphere. The non-invading cells on the upper surface of membrane were removed from the chambers with a cotton swab, and the invading cells on the lower surface of the membrane were fixed and stained using a Diff-Quick stain kit (Becton Dickinson, Bedford, Mass.). After two washes with water, the chambers were allowed to air dry. The numbers of invading cells in five adjacent microscope fields per membrane were counted at 20× magnification to obtain the average number of cells per field. Data are expressed as the percent invasion through the matrigel matrix and membrane relative to the migration through the control membrane. The assays were performed three times.

[8] = test system: NFκB promoter activity in Panc-1 cells; test: Luciferase assay for NFκB activity, Panc-1; assay type: cell-based; conditions: for NFκB promoter activity in Panc-1 cells, mean: 5 hours, 0 nM mean=3358
Method: FIGS. 3A, 3B, and 3C show the effect of cromolyn on S100P stimulated NFκB promoter activity in pancreatic cancer cells in vitro and in vivo. Panc-1 and BxPC-3 pancreatic cancer cell lines stably expressing an NFκB luciferase reporter were examined for the effects of S100P and cromolyn. […] Means and 95% confidence intervals are shown for three independent experiments performed in triplicate. *, P=0.022, †, P<0.001, and ‡, P<0.001 versus control; #, P=0.005 versus 100 nM S100P alone. […] Means and 95% confidence intervals are shown for three independent experiments performed in triplicate. *, P=0.003, †, P<0.001 versus control. […] After 1 week, tumor growth was assessed and NFκB activity was analyzed using an IVIS system (Xenogen Corp., Alameda, Calif.) after injecting mice with D-luciferin (150 mg per kg body weight) (0 time point). The mice were treated with cromolyn (5 mg per kg body weight by intraperitoneal injection), and NFκB luciferase activity was analyzed again at 24 and 48 hours. *, P=0.005 versus control. Means and 95% confidence intervals are shown for two independent experiments (n=4 mice per group). Two-tailed two-sample (unpaired for in vitro and paired for in vivo studies) Student's t-tests were used to determine P values.
To study pancreatic cancer cell NFκB activity, a lentivirus NFκB luciferase reporter gene construct was developed. The NFκB luciferase reporter gene was excised and isolated from the pNF-κB-Luc Vector (Clonetec, Mountain View, Calif.) and cloned into the lentiviral vector FG9 (Gift from Dr. Xiao-Feng Qin, Dept. of Immunology, M.D. Anderson Cancer Center replacing the CMV/LTR and UBiC promoters, to form Lenti-NFκB-Luc. Lentiviral NFκB vector were co-transfected with packaging constructs pRSVREV, pMDLg/pRRE, and the VSV-G expression plasmid pHCMVG, and lentivirus was produced in 293T cells by the calcium transfection method, as previously described in Qin, et al., Inhibiting HIV-1 infection in human T cells by lentiviral-mediated delivery of small interfering RNA against CCR5; Proc. Natl. Acad. Sci. U.S.A. 2003 Jan. 7; 100(1):183-8. […] Functional validation of NFκB reporter activity was conducted in vitro using TNF-α (20 ng/mL, Sigma, St. Louis, Mo.) as a positive control.
BxPC-3 and Panc-1 cells stably expressing a Lenti-NFkB-luc reporter construct were treated with S100P, cromolyn, or the combination for 5 hours. D-luciferin (150 μg/mL) was added to the cells, and luciferase activity was measured using an IVIS bioluminescence system (Xenogen Co. Alameda, Calif.). Each experiment was conducted three times in triplicate.

Sequence of S100B with RAGE (P04271 whole entry, species assumed): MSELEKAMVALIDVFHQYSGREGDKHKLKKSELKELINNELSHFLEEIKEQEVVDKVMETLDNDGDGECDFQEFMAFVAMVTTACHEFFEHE

O=C([O-])c1cc(=O)c2c(OCCCCCOc3cccc4oc(C(=O)[O-])cc(=O)c34)cccc2o1.[Na+].[Na+] [C5, disodium 1,5-bis(2-carboxychromon-5-yloxy) pentane]
concentration achieving the same level of S100P inhibition [1]: 100 nM
interaction between S100P with RAGE [1]: blocked
potency relative to cromolyn in blocking S100P-RAGE interaction [1]: more potent than cromolyn
MPanc-96 cell viability [2]: inhibit MPanc-96 cell viability
NFκB activity in pancreatic cancer cells in vitro ([3]; S100P 100 nM, compound 1 μM, 5 hours): inhibit NFκB activity
reduction of S100P induced NFκB activity relative to cromolyn ([3]; same dose (1 μM)): much better than cromolyn
interaction of S100B with RAGE [4]: inhibit the interaction of S100B with RAGE
BxPC-3 cell viability ([5]; 1-100 μM, alone or with gemcitabine 1 μM): inhibit BxPC-3 cell viability
inhibition of BxPC-3 cell viability relative to cromolyn ([5]; alone at 10 or 100 μM, with gemcitabine at 1-100 μM): more potent and more efficacious than cromolyn
concentration giving the same level of cell reduction in combination with gemcitabine ([5]; with gemcitabine 1 μM): 1 µM

PDGF
Panc-1 cell growth, difference control versus PDGF ([6]; PDGF 10 ng/mL, 48 hours): 0.2 MTS units
Panc-1 cell growth, mean ([6]; PDGF 10 ng/mL, 48 hours, control mean=0.5): 0.7 MTS units

B1: S100P: purified His-tagged full-length human S100P protein, added exogenously as RAGE ligand (protein, UniProt P25815 1-95, looked up)
chain: T1 sequence (P25815 1-95)
modifications: full-length His tag
notes: purified His-tagged full-length human S100P protein, added exogenously as RAGE ligand
Panc-1 cell proliferation, mean ([6]; S100P 100 nM alone): 0.93 MTS units
Panc-1 cells invaded, mean [7]: 58.0%
NFκB promoter activity in Panc-1 cells, difference versus 0 nM ([8]; S100P 1 nM): 3544 photons/sec
NFκB promoter activity in Panc-1 cells, mean ([8]; S100P 1 nM): 6902 photons/sec
NFκB promoter activity in Panc-1 cells, difference versus 0 nM ([8]; S100P 10 nM): 5400 photons/sec
NFκB promoter activity in Panc-1 cells, mean ([8]; S100P 10 nM): 8758 photons/sec
NFκB promoter activity in Panc-1 cells, difference versus 0 nM ([8]; S100P 100 nM): 11100 photons/sec
NFκB promoter activity in Panc-1 cells, mean ([8]; S100P 100 nM): 14460 photons/sec
